# Laboratory results reported in ChEMBL document CHEMBL5390243, “Catecholamine Derivatives: Natural Occurrence, Structural Diversity, and Biological Activity” (J Nat Prod, 2023).
# Experiments:
# [1] = Immunosuppressive activity in Kunming mouse splenocyte assessed as reduction in ConA-stimulated T-lymphocytes proliferation incubated for 72 hrs by CCK-8 assay; assay type: functional, cell-based; settings: T-cell
# RAW264.7 [2] = test: Anti-inflammatory activity in mouse RAW264.7 cells assessed as inhibition of LPS-induced TNFalpha production at 20 uM preincubated for 1 hr followed by LPS addition and measured after 24 hrs; assay type: functional; design: scale not given: the % may be the effect or the level left; settings: time 25 hrs
# HepG2 = test: Cytotoxicity against human HepG2 cells assessed as reduction in cell viability measured after 72 hrs by MTT assay; assay type: functional, cell-based; settings: HepG2, 72 h
# RAW264.7 [3] = test: Antiinflammatory activity against mouse RAW264.7 cells assessed as inhibition of LPS-induced nitric oxide production at 25 uM measured after 24 hrs relative to control; assay type: functional; design: scale not given: the % may be the effect or the level left
# [4] = target: Peroxisome proliferator-activated receptor alpha (Homo sapiens) (UniProt Q07869); test: Activation of PPARalpha (unknown origin) expressed in human HepG2 cells assessed as fold change at 1.47 ug/ml incubated for 24 hrs by luciferase assay; assay type: cell-based; settings: filed as activator, dose 1.47 µg/ml
# Klebsiella pneumoniae = test: Antimicrobial activity against Klebsiella pneumoniae 02-63 assessed as reduction in microbial cell growth incubated for 16 to 18 hrs by Mueller-Hinton broth based microdilution method; assay type: functional; settings: time 16-18 hrs
# Candida albicans [5] = test: Antifungal activity against Candida albicans SC5314 assessed as reduction in fungal growth incubated for 24 hrs by serial dilution method; assay type: functional
# Staphylococcus aureus [6] = test: Antibacterial activity against Staphylococcus aureus 01-159 assessed as bacterial growth inhibition measured after 16 to 18 hrs by Mueller-Hinton broth based microdilution method; assay type: functional; settings: time 16-18 hrs
# Influenza A virus = test: Antiviral activity against Influenza A virus H1N1 infected in dog MDCK cells assessed as inhibition in virus-induced cytopathic effect incubated for 48 hrs by SRB assay; assay type: functional, organism-based
# Streptococcus pneumoniae = test: Antimicrobial activity against Streptococcus pneumoniae 02-123 assessed as reduction in microbial growth incubated for 16 to 18 hrs by Mueller-Hinton broth based microdilution method; assay type: functional; settings: time 16-18 hrs
# RAW264.7 [7] = test: Anti-inflammatory activity against mouse RAW264.7 cells assessed as inhibition of LPS-induced NO production at 10 uM preincubated with compound for 2 hrs followed by LPS stimulation and measured after 24 hrs by Griess reagent based analysis; assay type: functional, cell-based
# [8] = target: Alpha amylase (Homo sapiens) (UniProt P0DUB6); test: Inhibition of alpha-amylase (unknown origin) at 0.556 ug/ml relative to control; settings: dose 0.556 µg/ml
# Cryptococcus neoformans = test: Antifungal activity against Cryptococcus neoformans assessed as reduction in fungal cell growth incubated for 24 hrs by microbroth dilution method; assay type: functional
# Candida albicans [9] = test: Antifungal activity against Candida albicans Y0109 assessed as reduction in microbial growth by micro-broth dilution method; assay type: functional
# RAW264.7 [10] = test: Anti-inflammatory activity against mouse RAW264.7 cells assessed as inhibition of LPS-induced NO production at 25 uM; assay type: functional; design: scale not given: the % may be the effect or the level left
# [11] = target: Rho-associated protein kinase 1 (Homo sapiens, UniProt Q13464); test: Inhibition of ROCK1 (unknown origin) incubated for 1 hr by FRET based Z'-lyte assay
# [12] = target: Rho-associated protein kinase 2 (Homo sapiens, UniProt O75116); test: Inhibition of ROCK2 (unknown origin) incubated for 1 hr by FRET based Z'lyte assay
# [13] = Immunosuppressive activity in Kunming mouse splenocyte assessed as reduction in ConA-stimulated T-lymphocytes proliferation at 20 uM incubated for 72 hrs by CCK-8 assay relative to control; assay type: functional, T-cell; design: scale not given: the % may be the effect or the level left
# Nakaseomyces glabratus [14] = test: Antifungal activity against Candida glabrata assessed as reduction in fungal growth incubated for 24 hrs by serial dilution method; assay type: functional
# Staphylococcus aureus [15] = test: Antibacterial activity against methicillin-resistant Staphylococcus aureus […] assessed as bacterial growth inhibition measured after 24 hrs by CLSI based two-fold serial dilution method; assay type: functional
# Staphylococcus aureus [16] = test: Antibacterial activity against vancomycin-intermediate Staphylococcus aureus ATCC 700787 assessed as bacterial growth inhibition incubated for 24 hrs by CLSI based two-fold serial dilution method; assay type: functional
# [17] = Antioxidant activity assessed as ABTS radical scavenging activity incubated for 30 mins by UV-visible spectrphotometric analysis; assay type: functional
# [18] = Antioxidant activity assessed as DPPH radical scavenging activity measured after 30 mins by UV-visible spectrophotometric analysis; assay type: functional
# Staphylococcus aureus [19] = test: Antibacterial activity against methicillin-sensitive Staphylococcus aureus ATCC 29213 assessed as bacterial growth inhibition measured after 24 hrs by CLSI based two-fold serial dilution method; assay type: functional
# Nakaseomyces glabratus [20] = test: Antifungal activity against Candida glabrata ATCC 15126 assessed as reduction in microbial growth incubated for 24 hrs by CLSI based broth micro-dilution method; assay type: functional
# Leishmania amazonensis = test: Antileishmanial activity against Leishmania amazonensis amastigotes assessed as inhibition of parasitic growth; assay type: functional, organism-based
# Trypanosoma cruzi = test: Antitrypanosomal activity against Trypanosoma cruzi trypomastigotes infected in Swiss albino mouse assessed a s reduction in parasitic growth and measured after 24 hrs; assay type: functional, organism-based
# U-251 = test: Cytotoxicity against human U-251 cells assessed as reduction in cell viability measured after 48 hrs by MTT assay; assay type: functional, cell-based; settings: U-251, 48 h
# SMMC-7721 = test: Cytotoxicity against human SMMC-7721 cells assessed as reduction in cell viability incubated for 48 hrs by MTT assay; assay type: functional, cell-based; settings: SMMC-7721, 48 h
# RAW264.7 [21] = test: Antiinflammatory activity in LPS-induced mouse RAW264.7 cells assessed as reduction in COX-2 level at 100 uM pretreated for 1 hr followed by LPS stimulation and measured after 48 hrs by ELISA relative to control; assay type: functional; design: scale not given: the % may be the effect or the level left; settings: time 49 hrs
# HL-60 = test: Cytotoxicity against human HL-60 cells assessed as reduction in cell viability measured after 48 hrs by MTT assay; assay type: functional, cell-based; settings: HL-60, 48 h
# CCF-STTG1 = test: Cytotoxicity against human CCF-STTGI assessed as reduction in cell viability measured after 48 hrs by MTT assay; assay type: functional, cell-based; settings: CCF-STTG1, 48 h
# SW480 = test: Cytotoxicity against human SW480 cells assessed as reduction in cell viability incubated for 48 hrs by MTT assay; assay type: functional, cell-based; settings: SW480, 48 h
# [22] = Cytotoxicity against human CHG-5 cells assessed as reduction in cell viability measured after 48 hrs by MTT assay; assay type: functional, cell-based; settings: CHG-5, 48 h
# [23] = Cytotoxicity against human SHG-44 cells assessed as reduction in cell viability measured after 48 hrs by MTT assay; assay type: functional, cell-based; settings: SHG-44, 48 h
# [24] = target: T1, Prostaglandin G/H synthase 2 (Homo sapiens, UniProt P35354); test: Inhibition of human recombinant COX-2 using arachidonic acid as substrate preincubated with compound for 15 mins followed by substrate addition and measured after 15 mins by fluorescence based analysis
# T1 sequence (P35354 whole entry): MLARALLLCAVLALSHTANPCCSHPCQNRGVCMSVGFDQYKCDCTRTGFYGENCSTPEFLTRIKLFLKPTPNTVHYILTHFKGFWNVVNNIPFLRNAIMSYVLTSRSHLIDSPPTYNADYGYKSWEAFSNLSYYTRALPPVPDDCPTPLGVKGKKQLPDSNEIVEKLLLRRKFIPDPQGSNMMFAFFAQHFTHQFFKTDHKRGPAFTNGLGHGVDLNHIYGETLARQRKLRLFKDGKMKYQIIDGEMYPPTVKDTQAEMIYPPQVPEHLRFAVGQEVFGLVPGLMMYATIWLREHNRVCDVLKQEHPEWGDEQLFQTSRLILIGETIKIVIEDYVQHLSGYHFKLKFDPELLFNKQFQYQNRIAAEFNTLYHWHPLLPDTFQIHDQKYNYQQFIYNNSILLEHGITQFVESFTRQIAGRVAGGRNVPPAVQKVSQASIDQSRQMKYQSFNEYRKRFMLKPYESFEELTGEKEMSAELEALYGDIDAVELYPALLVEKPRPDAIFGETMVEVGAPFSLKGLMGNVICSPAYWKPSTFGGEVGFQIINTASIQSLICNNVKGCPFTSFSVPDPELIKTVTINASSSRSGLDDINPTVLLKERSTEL
# [25] = target: Tyrosine-protein kinase JAK3 (Homo sapiens, UniProt P52333); test: Inhibition of JAK3 (unknown origin) preincubated for 1 hr followed by substrate addition and measured after 1 hr in the presence of ATP by FRET-based Z'-Lyte assay
# RAW264.7 [26] = test: Antiinflammatory activity against mouse RAW264.7 cells assessed as inhibition of LPS-induced TNF-alpha production at 25 uM measured after 24 hrs by ELISA method relative to control; assay type: functional; design: scale not given: the % may be the effect or the level left
# Rho-associated protein kinase 1, sequence (Q13464 whole entry): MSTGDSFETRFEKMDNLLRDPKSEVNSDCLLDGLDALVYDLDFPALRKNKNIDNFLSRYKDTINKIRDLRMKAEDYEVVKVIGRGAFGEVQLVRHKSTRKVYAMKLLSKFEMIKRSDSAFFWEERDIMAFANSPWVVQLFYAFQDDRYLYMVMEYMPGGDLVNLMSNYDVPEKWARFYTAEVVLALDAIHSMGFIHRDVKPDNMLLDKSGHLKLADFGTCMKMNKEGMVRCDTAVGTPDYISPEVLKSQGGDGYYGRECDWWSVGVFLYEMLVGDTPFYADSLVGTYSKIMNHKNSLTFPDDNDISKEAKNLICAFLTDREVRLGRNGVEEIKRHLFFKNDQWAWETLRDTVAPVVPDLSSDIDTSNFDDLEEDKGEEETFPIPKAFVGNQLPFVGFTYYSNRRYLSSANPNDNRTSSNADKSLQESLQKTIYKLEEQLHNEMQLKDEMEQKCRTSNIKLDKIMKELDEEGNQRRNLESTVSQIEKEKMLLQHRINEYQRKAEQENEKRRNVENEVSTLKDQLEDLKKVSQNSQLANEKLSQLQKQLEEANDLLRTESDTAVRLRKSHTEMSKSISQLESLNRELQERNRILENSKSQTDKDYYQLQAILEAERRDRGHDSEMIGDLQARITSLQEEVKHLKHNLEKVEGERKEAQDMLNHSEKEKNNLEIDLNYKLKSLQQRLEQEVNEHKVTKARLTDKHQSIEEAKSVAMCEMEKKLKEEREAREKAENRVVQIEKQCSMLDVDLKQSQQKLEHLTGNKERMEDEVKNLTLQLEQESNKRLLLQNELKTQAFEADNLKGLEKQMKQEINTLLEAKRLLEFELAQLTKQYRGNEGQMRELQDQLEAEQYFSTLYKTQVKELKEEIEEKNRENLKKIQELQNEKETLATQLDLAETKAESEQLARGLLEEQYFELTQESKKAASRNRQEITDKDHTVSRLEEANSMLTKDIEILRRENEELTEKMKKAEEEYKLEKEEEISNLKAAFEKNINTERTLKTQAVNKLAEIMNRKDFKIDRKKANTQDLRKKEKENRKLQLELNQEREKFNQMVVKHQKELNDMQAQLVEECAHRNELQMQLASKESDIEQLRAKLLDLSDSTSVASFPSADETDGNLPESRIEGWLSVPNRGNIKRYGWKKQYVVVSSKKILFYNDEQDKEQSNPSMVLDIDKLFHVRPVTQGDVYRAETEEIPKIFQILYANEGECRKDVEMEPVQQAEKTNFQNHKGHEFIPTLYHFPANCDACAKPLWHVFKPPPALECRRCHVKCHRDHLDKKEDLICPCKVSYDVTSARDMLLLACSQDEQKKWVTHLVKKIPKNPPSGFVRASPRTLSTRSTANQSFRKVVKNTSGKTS
# Tyrosine-protein kinase JAK3, sequence (P52333 whole entry): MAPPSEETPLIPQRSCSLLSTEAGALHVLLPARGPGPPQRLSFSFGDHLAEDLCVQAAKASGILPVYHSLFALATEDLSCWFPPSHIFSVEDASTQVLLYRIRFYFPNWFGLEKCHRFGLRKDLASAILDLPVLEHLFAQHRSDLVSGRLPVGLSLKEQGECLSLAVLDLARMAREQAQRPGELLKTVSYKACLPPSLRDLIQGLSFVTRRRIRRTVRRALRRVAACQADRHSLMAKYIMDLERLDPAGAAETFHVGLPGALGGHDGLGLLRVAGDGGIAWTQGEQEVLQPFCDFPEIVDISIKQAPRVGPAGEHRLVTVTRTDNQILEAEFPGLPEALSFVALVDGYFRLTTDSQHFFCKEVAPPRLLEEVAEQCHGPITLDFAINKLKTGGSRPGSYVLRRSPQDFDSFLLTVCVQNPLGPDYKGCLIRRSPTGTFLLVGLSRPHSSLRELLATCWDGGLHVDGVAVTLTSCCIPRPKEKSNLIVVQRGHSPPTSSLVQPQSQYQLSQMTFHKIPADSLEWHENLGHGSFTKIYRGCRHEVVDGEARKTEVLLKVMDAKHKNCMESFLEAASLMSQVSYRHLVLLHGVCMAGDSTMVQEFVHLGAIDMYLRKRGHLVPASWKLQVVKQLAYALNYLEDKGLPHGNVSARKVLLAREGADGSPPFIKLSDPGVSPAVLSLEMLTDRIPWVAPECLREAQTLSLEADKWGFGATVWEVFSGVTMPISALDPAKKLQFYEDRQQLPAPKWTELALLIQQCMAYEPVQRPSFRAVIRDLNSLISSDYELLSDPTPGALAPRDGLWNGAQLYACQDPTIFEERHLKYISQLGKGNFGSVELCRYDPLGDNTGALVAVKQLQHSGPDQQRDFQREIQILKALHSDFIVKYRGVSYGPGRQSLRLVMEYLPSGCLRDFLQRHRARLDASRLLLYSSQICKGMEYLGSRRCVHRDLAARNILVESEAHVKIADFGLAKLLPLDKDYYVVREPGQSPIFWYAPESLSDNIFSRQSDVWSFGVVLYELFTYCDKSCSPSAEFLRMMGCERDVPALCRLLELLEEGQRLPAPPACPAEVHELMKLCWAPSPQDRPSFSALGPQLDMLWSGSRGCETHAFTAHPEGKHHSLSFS
# Alpha amylase (Homo sapiens), sequence (P0DUB6 whole entry, looked up): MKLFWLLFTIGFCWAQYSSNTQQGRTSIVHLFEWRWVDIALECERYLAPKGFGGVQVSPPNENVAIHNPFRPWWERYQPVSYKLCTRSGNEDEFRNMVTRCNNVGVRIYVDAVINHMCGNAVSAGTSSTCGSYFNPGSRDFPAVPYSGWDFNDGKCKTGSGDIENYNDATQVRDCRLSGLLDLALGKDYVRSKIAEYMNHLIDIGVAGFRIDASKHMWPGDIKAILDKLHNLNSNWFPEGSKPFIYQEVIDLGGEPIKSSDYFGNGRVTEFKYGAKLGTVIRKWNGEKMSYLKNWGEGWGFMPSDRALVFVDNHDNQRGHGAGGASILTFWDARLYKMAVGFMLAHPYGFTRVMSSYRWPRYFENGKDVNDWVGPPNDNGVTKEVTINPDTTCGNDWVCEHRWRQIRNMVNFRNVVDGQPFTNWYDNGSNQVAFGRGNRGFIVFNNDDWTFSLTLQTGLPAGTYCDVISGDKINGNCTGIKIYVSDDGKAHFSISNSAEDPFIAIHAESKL
# Peroxisome proliferator-activated receptor alpha (Homo sapiens), sequence (Q07869 whole entry): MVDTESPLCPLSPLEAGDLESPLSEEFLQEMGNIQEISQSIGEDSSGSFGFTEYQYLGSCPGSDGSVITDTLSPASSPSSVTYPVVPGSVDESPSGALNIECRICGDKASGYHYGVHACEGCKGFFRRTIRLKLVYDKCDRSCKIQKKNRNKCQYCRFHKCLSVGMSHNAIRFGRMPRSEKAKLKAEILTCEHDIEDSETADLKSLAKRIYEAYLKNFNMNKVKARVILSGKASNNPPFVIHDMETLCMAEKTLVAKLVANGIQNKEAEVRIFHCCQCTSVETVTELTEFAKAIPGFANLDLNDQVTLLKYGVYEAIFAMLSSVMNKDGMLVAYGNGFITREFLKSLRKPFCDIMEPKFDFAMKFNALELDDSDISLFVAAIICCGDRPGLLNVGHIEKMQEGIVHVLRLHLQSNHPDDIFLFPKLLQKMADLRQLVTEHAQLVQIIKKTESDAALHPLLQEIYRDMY
# Rho-associated protein kinase 2, sequence (O75116 whole entry): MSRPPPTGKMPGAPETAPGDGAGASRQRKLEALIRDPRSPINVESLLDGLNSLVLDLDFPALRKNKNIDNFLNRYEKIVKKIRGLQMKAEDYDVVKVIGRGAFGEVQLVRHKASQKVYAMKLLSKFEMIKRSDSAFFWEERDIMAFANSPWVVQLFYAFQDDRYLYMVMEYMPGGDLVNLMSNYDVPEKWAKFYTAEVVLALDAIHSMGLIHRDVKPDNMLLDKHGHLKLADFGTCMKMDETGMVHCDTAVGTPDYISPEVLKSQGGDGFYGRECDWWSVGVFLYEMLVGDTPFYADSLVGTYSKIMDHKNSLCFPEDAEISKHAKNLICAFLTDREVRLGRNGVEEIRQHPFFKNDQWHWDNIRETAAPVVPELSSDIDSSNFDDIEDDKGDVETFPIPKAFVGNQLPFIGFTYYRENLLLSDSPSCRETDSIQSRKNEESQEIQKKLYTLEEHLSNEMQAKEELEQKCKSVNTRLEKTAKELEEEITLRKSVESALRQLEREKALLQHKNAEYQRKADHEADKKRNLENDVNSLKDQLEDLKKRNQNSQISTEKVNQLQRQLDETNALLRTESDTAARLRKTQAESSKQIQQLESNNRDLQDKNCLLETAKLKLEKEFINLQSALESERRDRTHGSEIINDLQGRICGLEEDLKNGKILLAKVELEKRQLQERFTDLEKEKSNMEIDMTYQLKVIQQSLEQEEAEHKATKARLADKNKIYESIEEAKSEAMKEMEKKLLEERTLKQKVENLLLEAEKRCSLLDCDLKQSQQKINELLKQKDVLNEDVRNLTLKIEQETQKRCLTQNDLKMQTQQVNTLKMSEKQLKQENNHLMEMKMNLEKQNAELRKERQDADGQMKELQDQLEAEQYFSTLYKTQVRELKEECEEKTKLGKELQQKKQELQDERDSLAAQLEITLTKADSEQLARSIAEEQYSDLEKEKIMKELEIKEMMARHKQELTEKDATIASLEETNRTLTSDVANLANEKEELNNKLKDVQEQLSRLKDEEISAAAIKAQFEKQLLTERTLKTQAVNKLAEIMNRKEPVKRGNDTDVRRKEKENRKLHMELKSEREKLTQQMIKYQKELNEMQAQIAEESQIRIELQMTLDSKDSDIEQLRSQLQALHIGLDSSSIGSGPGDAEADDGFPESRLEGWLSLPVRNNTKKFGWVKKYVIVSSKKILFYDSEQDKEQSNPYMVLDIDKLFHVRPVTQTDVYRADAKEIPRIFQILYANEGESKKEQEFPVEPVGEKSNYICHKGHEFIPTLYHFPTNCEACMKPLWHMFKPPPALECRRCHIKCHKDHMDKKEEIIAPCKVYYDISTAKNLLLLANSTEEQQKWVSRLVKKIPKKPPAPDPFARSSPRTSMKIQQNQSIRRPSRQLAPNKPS
smiles,measurement,setting,value
CC(=O)NCCc1cc(O)c(O)cc1S(C)(=O)=O,IC50,[1],33 µM
same,Activity,RAW264.7 [2],52.77%
CCCCCC/C=C\CCCCCCCCC/C(NCCc1ccc(O)c(O)c1)=C1/C(=O)CC[C@H](O)C1=O,IC50,HepG2,73.9 µM
Oc1ccc(-c2cnccn2)cc1O,Activity,RAW264.7 [3],42.11%
CC(C)(Oc1ccc(C2CC2(Cl)Cl)cc1)C(=O)O (stereo not drawn),fold change (FC),[4],2.2
O=C1CC[C@H]2c3cc(O)c(O)cc3CCN12,MIC,Klebsiella pneumoniae,128 µg/mL
same,MIC80,Candida albicans [5],> 64 µg/mL
same,MIC,Staphylococcus aureus [6],32 µg/mL
same,IC50,Influenza A virus,56.8 µg/mL
same,MIC,Streptococcus pneumoniae,128 µg/mL
same,IC50,RAW264.7 [7],30.3 µM
same,inhibition,[8],17%
same,MIC80,Cryptococcus neoformans,32 µg/mL
same,MIC80,Candida albicans [9],32 µg/mL
CC(=O)N/C=C/c1ccc(O)c(O)c1,Activity,RAW264.7 [10],32.9%
CC(=O)NCCc1cc(O)c(O)cc1[C@@H](NC(C)=O)C(=O)c1ccc(O)c(O)c1,IC50,[11],29.1 µM
same,IC50,[12],17.9 µM
same,Activity,[13],17.01%
C[C@H](N)[C@H](CCCCCCCCCCCC/C=C/C(O)CCCCCCC[C@@H]1NCCc2cc(O)c(O)cc21)O[C@@H]1O[C@@H](CO)[C@@H](O)[C@@H](O)[C@@H]1O (stereo partly drawn),MIC,Nakaseomyces glabratus [14],25 µg/mL
O=C1N[C@@H](Cc2ccc(O)c(O)c2)C(=O)N2CCC[C@@H]12,MIC,Staphylococcus aureus [15],256 µg/mL
same,MIC,Staphylococcus aureus [16],256 µg/mL
same,EC50,[17],1.71 µg/mL
same,EC50,[18],12.98 µg/mL
same,MIC,Staphylococcus aureus [19],256 µg/mL
same,MIC,Nakaseomyces glabratus [20],128 µg/mL
Oc1ccc([C@H]2NCCc3cc(O)c(O)cc32)cc1O,IC50,Leishmania amazonensis,0.16 µM
same,IC50,Trypanosoma cruzi,0.23 µM
Oc1cc2c3c(c1O)c1cc4c(cc1c[n+]3CC2)OCO4,IC50,U-251,9.4 µM
same,IC50,SMMC-7721,9.4 µM
same,Activity,RAW264.7 [21],96.5%
same,IC50,HL-60,9.4 µM
same,IC50,CCF-STTG1,9.4 µM
same,IC50,SW480,9.4 µM
same,IC50,[22],9.4 µM
same,IC50,[23],9.4 µM
CC(=O)NCCc1ccc(NC(=O)c2ccc(O)c(O)c2)c(O)c1,IC50,[24],6.86 µM
same,IC50,[25],12.2 µM
Cc1cncc(-c2ccc(O)c(O)c2)n1,Activity,RAW264.7 [26],47.36%
